Measurements: PubChem BioAssay (NCI)
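A five-concentration, 48-hour dose response in 96-well plates underlies each endpoint, interpolated linearly between surrounding concentrations. Here, GI50 denotes the concentration required for 50% inhibition of growth. TGI is the concentration that stops growth completely.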

Legend:
Assay in all cases: NCI anticancer screen, dose series, 48 h
[1] = system: UO-31 renal
[2] = system: NCI-H460 lung
[3] = system: HCT-116 colon
[4] = system: A498 renal
[5] = system: SK-MEL-28 melanoma
[6] = system: UACC-62 melanoma
[7] = system: SW-620 colon
[8] = system: HCC-2998 colon
[9] = system: SF-539 CNS
[10] = system: NCI-H522 lung
[11] = system: HT29 colon
[12] = system: NCI-H23 lung
[13] = system: MOLT-4 leukemia
[14] = system: NCI/ADR-RES ovarian
[15] = system: MCF7 breast
[16] = system: SF-295 CNS
[17] = system: IGROV1 ovarian
[18] = system: K-562 leukemia
[19] = system: SK-OV-3 ovarian
[20] = system: SN12C renal
[21] = system: RPMI-8226 leukemia
[22] = system: MDA-MB-231 breast
[23] = system: ACHN renal
[24] = system: UACC-257 melanoma
[25] = system: HCT-15 colon
[26] = system: SNB-19 CNS
[27] = system: HL-60(TB) leukemia
[28] = system: PC-3 prostate
[29] = system: BT-549 breast
[30] = system: DU-145 prostate
[31] = system: M14 melanoma
[32] = system: HOP-62 NSCLC
[33] = system: MDA-MB-435
[34] = system: SK-MEL-2 melanoma
[35] = system: LOX IMVI melanoma
[36] = system: OVCAR-8 ovarian
[37] = system: SK-MEL-5 melanoma
[38] = system: 786-0 renal
[39] = system: OVCAR-3 ovarian
[40] = system: NCI-H226 lung
[41] = system: KM12 colon
[42] = system: COLO 205 colon
[43] = system: U251 CNS
[44] = system: HS 578T breast
[45] = system: SNB-75 CNS
[46] = system: SR leukemia
[47] = system: OVCAR-5 ovarian
[48] = system: TK-10 renal
[49] = system: A549 NSCLC
[50] = system: HOP-92 NSCLC
[51] = system: OVCAR-4 ovarian
[52] = system: SF-268 CNS
[53] = system: CCRF-CEM leukemia
[54] = system: CAKI-1 renal

COc1ccc(-c2n[nH]nc2-c2cc(OC)c3c(c2)OCO3)cc1
GI50 [1]: 50.5 nM | TGI [1]: 73000 nM | GI50 [2]: 14.3 nM | TGI [2]: 13200 nM | GI50 [3]: 17 nM | GI50 [4]: < 10 nM | TGI [4]: 69.3 nM | GI50 [5]: 44.4 nM | TGI [5]: > 89700 nM | GI50 [6]: < 10 nM | TGI [6]: 49200 nM | GI50 [7]: < 11.7 nM | TGI [7]: > 100000 nM | GI50 [8]: 69 nM | TGI [8]: 2400 nM | GI50 [9]: 15.4 nM | TGI [9]: 44.9 nM | GI50 [10]: < 10 nM | GI50 [11]: 36.5 nM | TGI [11]: 4290 nM | GI50 [12]: 31.4 nM | TGI [12]: 29600 nM | GI50 [13]: 62.7 nM | TGI [13]: 5450 nM | GI50 [14]: < 10 nM | TGI [14]: 982 nM | GI50 [15]: < 10 nM | TGI [15]: > 82300 nM | GI50 [16]: < 10 nM | TGI [16]: 429 nM | GI50 [17]: 28.9 nM | TGI [17]: > 100000 nM | GI50 [18]: < 10 nM | TGI [18]: > 100000 nM | GI50 [19]: 29.4 nM | TGI [19]: 2080 nM | GI50 [20]: 71 nM | TGI [20]: 55600 nM | GI50 [21]: 31.9 nM | TGI [21]: 32500 nM | GI50 [22]: 40.9 nM | TGI [22]: 437 nM | GI50 [23]: 64.8 nM | TGI [23]: > 100000 nM | GI50 [24]: 20500 nM | TGI [24]: > 100000 nM | GI50 [25]: < 10 nM | TGI [25]: > 36200 nM | GI50 [26]: 44.1 nM | TGI [26]: > 100000 nM | GI50 [27]: 25.2 nM | TGI [27]: 336 nM | GI50 [28]: 38.4 nM | TGI [28]: > 100000 nM | GI50 [29]: 84.7 nM | TGI [29]: 28900 nM | GI50 [30]: 32.8 nM | TGI [30]: 1190 nM | GI50 [31]: 14 nM | TGI [31]: 10500 nM | GI50 [32]: < 13.5 nM | TGI [32]: > 68100 nM | GI50 [33]: < 10 nM | GI50 [34]: 18.4 nM | TGI [34]: 20300 nM | GI50 [35]: 64.9 nM | TGI [35]: 16000 nM | GI50 [36]: 35 nM | TGI [36]: > 52900 nM | GI50 [37]: 26.7 nM | TGI [37]: 899 nM | GI50 [38]: 42.3 nM | TGI [38]: 28500 nM | GI50 [39]: 10.1 nM | GI50 [40]: 830 nM | TGI [40]: > 100000 nM | GI50 [41]: < 15 nM | TGI [41]: 8270 nM | GI50 [42]: 206 nM | TGI [42]: 1170 nM | GI50 [43]: 35.9 nM | TGI [43]: 15600 nM | GI50 [44]: 21.9 nM | TGI [44]: 3720 nM | GI50 [45]: 12.8 nM | TGI [45]: 1720 nM | GI50 [46]: < 10 nM | TGI [46]: 17500 nM | GI50 [47]: 66.5 nM | TGI [47]: > 100000 nM | GI50 [48]: 15700 nM | TGI [48]: > 100000 nM | GI50 [49]: 23.9 nM | TGI [49]: > 100000 nM | GI50 [50]: 160 nM | TGI [50]: 22200 nM | GI50 [51]: 1250 nM | TGI [51]: > 100000 nM | GI50 [52]: 87 nM | TGI [52]: > 62300 nM | GI50 [53]: 26.4 nM | TGI [53]: 14200 nM | GI50 [54]: 23.7 nM | TGI [54]: 58500 nM

C=C(C)[C@@H]1CC[C@]2(C(=O)OCCCC[P+](c3ccccc3)(c3ccccc3)c3ccccc3)CC[C@]3(C)[C@H](CC[C@@H]4[C@@]5(C)CC[C@H](OC(=O)C(Cl)Cl)C(C)(C)[C@@H]5CC[C@]43C)[C@@H]12
GI50 [20]: 270 nM | TGI [20]: 1580 nM

NC(=O)c1ncn(CC2(CO)CCC2)n1
GI50 [45]: 21600 nM
